Tested on: 3′ UTR of the human DMPK gene
Assay: Single-cut screening: indel editing efficiency by Sanger sequencing and ICE analysis in primary DM1 patient myoblasts
Type: cell-based
Settings: vehicle-treated samples; for indel efficiency (Sanger sequencing and ICE analysis): single-cut, SluCas9 RNP, 72 hrs post nucleofection, wild-type allele; for Indel efficiency: single SluCas9 sgRNA RNP in primary DM1 patient myoblasts, Sanger sequencing and ICE analysis
Method in brief: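 Indels were estimated by ICE from Sanger chromatograms of PCR amplicons covering the DMPK 3′ UTR wild-type allele, using only vehicle-treated samples; sgRNAs with R2<0.9 are flagged. Samples came from primary DM1 patient myoblasts (2 × 10^5) harvested 72 h after nucleofection with 30 pmol SluCas9 and 90 pmol single sgRNA RNP.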

Row | Substance | indel efficiency (Sanger sequencing and ICE analysis) | Indel efficiency
1 | ATGGGCAAACTGCAGGCCTGGG (listed as DNA, chemistry not fully specified) [SluD14] | high editing IN4DEL efficiency | –
2 | GCCCCGTTGGAAGACTGAGTGC (listed as DNA, chemistry not fully specified) [SluU08] | high editing IN4DEL efficiency | 87%
3 | ggggcTCGAAGGGTCCTTGTAG (as printed in the source, key not given here) [SluU63] | high editing IN4DEL efficiency | –
4 | gggcTCGAAGGGTCCTTGTAGC (as printed in the source, key not given here) [SluU64] | high editing IN4DEL efficiency | 59%

From patent US20240173432A1, “Compositions and Methods for Treatment of Myotonic Dystrophy Type 1 with CRISPR/SluCas9” (Vertex Pharmaceuticals Incorporated, priority 2021, published 2024)
